Measurements reported in publication PMC8474119, “Discovery and SAR Evolution of Pyrazole Azabicyclo[3.2.1]octane Sulfonamides as a Novel Class of Non-Covalent N-Acylethanolamine-Hydrolyzing Acid Amidase (NAAA) Inhibitors for Oral Administration” (Journal of Medicinal Chemistry, 2021).

Legend:
[1] = Liver microsomal stability assay (NADPH), rat; type: in vitro ADME; settings: male, Sprague-Dawley, pH 7.5, rat liver microsomes, read-out: LM_NADPH t1/2
Protocol: Pooled CD1 mouse (M1000, male), IGS Sprague-Dawley rat (R1000, male), and human (H1000, male) liver microsomes were purchased from SEKISUI XenoTech. 10 mM DMSO stock solution of the test compound (39 or 50) was preincubated at 37 °C for 15 min with mouse, rat, or human liver microsomes in 0.1 M Tris-HCl buffer (pH 7.5) with 10% DMSO. The final concentration was 4.6 μM. After preincubation, the cofactor (NADPH) was added to the incubation mixture, and the incubation was continued at 37 °C for 1 h. At each time point (0, 5, 15, 30, and 60 min), 30 μL of incubation mixture was diluted with 200 μL cold CH3CN spiked with 200 nM of an appropriate internal standard, followed by centrifugation at 3.270g for 15 min. […] A reference incubation mixture of each specie (microsomes without cofactors) was prepared for each test compound and analyzed at t = 0 and 60 min in order to verify the compound stability in the matrix. […] The supernatants were analyzed by LC–MS/MS on a Waters ACQUITY UPLC-MS TQD system consisting of a triple quadrupole detector (TQD) mass spectrometer equipped with an electrospray ionization interface and a photodiode array eλ detector (PDA) from Waters Inc. (Milford, MA, USA). […] The percentage of test compound remaining at each time point relative to t = 0 was calculated by the response factor on the basis of the internal standard peak area. […]

[2] = Mouse pharmacokinetics, i.v. and p.o.; type: in vivo; settings: plasma, male C57BL/6 mice; for AUC at 4 h / Cmax at 4 h / Tmax at 4 h / Vd at 4 h / clearance at 4 h / bioavailability at 4 h: iv; for AUC at 4 h / Cmax at 4 h / Tmax at 4 h / Vd at 4 h / clearance at 4 h: i.v. 3 mg/kg; for AUC at 8 h / Cmax at 8 h / Tmax at 8 h: po, p.o. 10 mg/kg
Protocol: Male C57BL/6 mice, weighing 22–24 g, were used (Charles River). All procedures were performed in accordance with the Ethical Guidelines of European Communities Council (Directive 2010/63/EU of 22 September 2010) and accepted by the Italian Ministry of Health. All efforts were made to minimize animal suffering and to use the minimal number of animals required to produce reliable results, according to the “3Rs concept”. Animals were group-housed in ventilated cages and had free access to food and water. They were maintained under a 12 h light/dark cycle (lights on at 8:00 am) at controlled temperature (21 ± 1 °C) and relative humidity (55 ± 10%).
Compound 39 or 50 was administered p.o. and i.v. to C57BL/6 male mice at 10 and 3 mg/kg. The vehicle used was PEG400/Tween 80/saline solution at 10/10/80% in volume, respectively. Three animals per each time point were treated. Blood samples at 0, 15, 30, 60, 120, 240, and 480 min after administration were collected for the p.o. arm. Blood samples at 0, 5, 15, 30, 60, 120, and 240 min after administration were collected for the i.v. arm. Plasma was separated from blood by centrifugation for 15 min at 1500 rpm a 4 °C, transferred to Eppendorf tubes, and frozen (−80 °C). Control animals treated with vehicle only were also included in the experimental protocol.
Plasma samples were centrifuged at 21,100g for 15 min at 4 °C. An aliquot of each sample was extracted (1:3) with cold CH3CN containing 200 nM of an appropriate internal standard as a close analogue of the parent compound (for compound 39: (1R,3r,5S)-3-(4-phenylphenoxy)-8-((3,5-dimethyl-1H-pyrazol-4-yl)sulfonyl)-8 azabicyclo[3.2.1]octane; for compound 50: (1R,3r,5S)-3-((5-methylpyrazin-2-yl)oxy)-8-((3,5-dimethyl-1H-pyrazol-4-yl)sulfonyl)-8-azabicyclo[3.2.1]octane). A calibration curve was obtained in blank mouse plasma over a 1 nM to 10 μM range. Three quality controls were prepared by spiking the parent compound in blank mouse plasma to 20, 200, and 2.000 nM, as final concentrations. The calibrators and quality controls were extracted (1:3) with the same extraction solution as the plasma sample. The plasma samples, the calibrators, and quality controls were centrifuged at 3.270g for 15 min at 4 °C. The supernatants were further diluted (1:1) with H2O + 0.1% HCOOH, and analyzed by LC–MS/MS on a Waters ACQUITY UPLC-MS TQD system consisting of a Triple Quadrupole Detector (TQD) Mass Spectrometer equipped with an Electrospray Ionization interface and a Photodiode Array eλ Detector from Waters Inc. (Milford, MA, USA). Electrospray ionization was applied in positive mode. Compound-dependent parameters such as MRM transitions and collision energy were developed for the parent compound and the internal standard. The analyses were run on an ACQUITY UPLC BEH C18 (50 × 2.1 mm ID, particle size 1.7 μm) with a VanGuard BEH C18 precolumn (5 × 2.1 mm ID, particle size 1.7 μm) at 40 °C. The mobile phase was H2O + 0.1% HCOOH (A) and CH3CN + 0.1% HCOOH (B) at a flow rate = 0.5 mL/min. A linear gradient was applied starting at 10% B with an initial hold for 0.2 min, then 10–100% B in 2 min. All samples (plasma samples, calibrators, and quality controls) were quantified by the MRM peak area response factor in order to determine the levels of the parent compound in plasma. The concentrations versus time were plotted and the profiles were fitted using PK Solutions Excel Application (Summit Research Service, USA) in order to determine the pharmacokinetic parameters.

[3] = Liver microsomal stability assay (NADPH), human; type: in vitro ADME; settings: for % compound remaining at last time-point, LM_NADPH: human liver microsomes, 4.6 μM, 60 min; for half-life at 4.6 μM: male, pH 7.5, human liver microsomes, read-out: LM_NADPH t1/2
Protocol: Pooled CD1 mouse (M1000, male), IGS Sprague-Dawley rat (R1000, male), and human (H1000, male) liver microsomes were purchased from SEKISUI XenoTech. 10 mM DMSO stock solution of the test compound (39 or 50) was preincubated at 37 °C for 15 min with mouse, rat, or human liver microsomes in 0.1 M Tris-HCl buffer (pH 7.5) with 10% DMSO. The final concentration was 4.6 μM. After preincubation, the cofactor (NADPH) was added to the incubation mixture, and the incubation was continued at 37 °C for 1 h. At each time point (0, 5, 15, 30, and 60 min), 30 μL of incubation mixture was diluted with 200 μL cold CH3CN spiked with 200 nM of an appropriate internal standard, followed by centrifugation at 3.270g for 15 min. The supernatant was further diluted with H2O (1:1) for analysis. A reference incubation mixture of each specie (microsomes without cofactors) was prepared for each test compound and analyzed at t = 0 and 60 min in order to verify the compound stability in the matrix. The two time points were diluted as for the time points of the incubation mixture above. The supernatants were analyzed by LC–MS/MS on a Waters ACQUITY UPLC-MS TQD system consisting of a triple quadrupole detector (TQD) mass spectrometer equipped with an electrospray ionization interface and a photodiode array eλ detector (PDA) from Waters Inc. (Milford, MA, USA). Electrospray ionization was applied in positive mode. Compound-dependent parameters as MRM transitions and collision energy were developed for each compound. The analyses were run on an ACQUITY UPLC BEH C18 (50 × 2.1 mm ID, particle size 1.7 μm) with a VanGuard BEH C18 precolumn (5 × 2.1 mm ID, particle size 1.7 μm) at 40 °C, using H2O + 0.1% HCOOH (A) and CH3CN + 0.1% HCOOH (B) as the mobile phase. The percentage of test compound remaining at each time point relative to t = 0 was calculated by the response factor on the basis of the internal standard peak area. The percentage of test compound versus time was plotted and fitted by GraphPad Prism (GraphPad Software, Version 5 for Windows, CA, USA, www.graphpad.com) to estimate the compound’s half-life (t1/2), which was reported as mean value along with the standard deviation (n = 3).

[4] = p.o. 10 mg/kg vs i.v. 3 mg/kg, read-out: F (oral bioavailability)

Compound	half-life at 1 h, 4.6 µM [1]	AUC at 4 h [2]	Cmax at 4 h [2]	Tmax at 4 h [2]	Vd at 4 h [2]	clearance at 4 h [2]	bioavailability at 4 h [2, 4]	AUC at 8 h [2]	Cmax at 8 h [2]	Tmax at 8 h [2]	% compound remaining at last time-point, LM_NADPH [3]	half-life at 4.6 μM [3]	bioavailability ([2]; oral, p.o. 10 mg/kg vs i.v. 3 mg/kg, read-out: F (oral bioavailability))
CCCCc1ccc(O[C@H]2C[C@H]3CC[C@@H](C2)N3S(=O)(=O)c2c(C)n[nH]c2C)cc1 [Compound 39, (1R,3r,5S)-3-(4-Butylphenoxy)-8-((3,5-dimethyl-1H-pyrazol-4-yl)sulfonyl)-8-azabicyclo[3.2.1]octane]	13 min	0.347 µg·h/mL	0.702 µg/mL	5 min	4.45 L/kg	8.64 L/h/kg	30%	0.346 µg·h/mL	0.297 µg/mL	30 min	83%	> 60 min	–
CCOCc1cnc(O[C@H]2C[C@H]3CC[C@@H](C2)N3S(=O)(=O)c2c(C)n[nH]c2C)cn1 [Compound 50, (1R,3r,5S)-8-((3,5-Dimethyl-1H-pyrazol-4-yl)sulfonyl)-3-((5-(ethoxymethyl)pyrazin-2-yl)oxy)-8-azabicyclo[3.2.1]octane]	48 min	3.37 µg·h/mL	5.24 µg/mL	5 min	0.53 L/kg	0.78 L/h/kg	60%	6.79 µg·h/mL	6.87 µg/mL	15 min	88%	> 60 min	~60%
